Laboratory results published in PubChem BioAssay (NCI).
Values joined by “and” are separate entries in the source; they are usually repeats but may differ in a detail not shown here. Equal values may be shown once.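 In this assay, cells in 96-well plates receive the compound at five concentrations for 48 hours. Endpoints are linearly interpolated between the surrounding concentrations. GI50 is the concentration that inhibits growth by half. TGI marks complete inhibition of growth.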

Key:
Test in all cases: NCI-60 cell line screen, 48 h
SW-620 colon = test system: SW-620 colon
SK-MEL-5 melanoma = test system: SK-MEL-5 melanoma
OVCAR-5 ovarian = test system: OVCAR-5 ovarian
NCI-H460 lung = test system: NCI-H460 lung
NCI-H522 lung = test system: NCI-H522 lung
HOP-62 NSCLC = test system: HOP-62 NSCLC
IGROV1 ovarian = test system: IGROV1 ovarian
UO-31 renal = test system: UO-31 renal
HOP-92 NSCLC = test system: HOP-92 NSCLC

Row | SMILES | TGI (SW-620 colon) | TGI (SK-MEL-5 melanoma) [µM] | TGI (OVCAR-5 ovarian) | TGI (NCI-H460 lung) | TGI (NCI-H522 lung) | TGI (HOP-62 NSCLC) | TGI (IGROV1 ovarian) | TGI (UO-31 renal) | TGI (HOP-92 NSCLC) | GI50 (SW-620 colon) [µM] | GI50 (SK-MEL-5 melanoma) [µM] | GI50 (NCI-H460 lung) [µM] | GI50 (NCI-H522 lung) [µM] | GI50 (HOP-62 NSCLC) [µM] | GI50 (IGROV1 ovarian) [µM] | GI50 (UO-31 renal) [µM] | GI50 (HOP-92 NSCLC) | GI50 (OVCAR-5 ovarian) [µM]
1 | CCc1cc(Cc2ccc(C)c(NC(=O)C(=O)C3C(=O)NC(=O)NC3=O)c2CC)cc(C)c1NC(=O)C(=O)C1C(=O)NC(=O)NC1=O | > 100 µM | > 100 | > 100 µM | > 100 µM | > 100 µM | > 100 µM | > 100 µM | > 100 µM |  |  |  |  |  |  |  |  |  | 
2 | O=C1C=Cc2ncccc2C1=O | 31.1 µM | 28.2 | > 58 µM | 38.2 µM | 29.7 µM | > 82.9 µM | > 58.3 µM | > 57.7 µM | 42.5 µM |  |  |  |  |  |  |  |  | 
3 | [CH3][Sn]1([CH3])[O]CC(COc2cc(Cl)c(Cl)cc2Cl)[O]1 (stereo not drawn) | > 100 µM | > 100 |  | > 100 µM | 36.3 µM | > 100 µM | > 100 µM | > 100 µM |  | 51 | 49.8 | > 100 | 16.8 | > 100 | 70.3 | 71 |  | 
4 | CC(C)(C)Sc1nnc(SC(C)(C)C)c2c(=O)[nH]nc(SC(C)(C)C)c12 | 20.8 µM | 17.2 | 16.9 µM | 19.5 µM | 14.2 µM | 27 µM | 22 µM | 19.7 µM | 14.1 µM |  |  |  |  |  |  |  |  | 
5 | Cn1nc(-c2ccccc2)c(C(=O)/C=C/c2ccc(Cl)cc2)c(N2CCCC2)c1=O | 21.9 µM | 18.6 |  | 12.9 µM | 6.45 µM | 6.93 µM | 27.9 µM | 21.5 µM | 6.94 µM |  |  |  |  |  |  |  |  | 
6 | CC1=CC(=O)NP(=O)(C23CC4CC(CC(C4)C2)C3)N1 (stereo not drawn) | > 100 µM | > 100 | > 100 µM | > 100 µM | > 100 µM | > 100 µM | > 100 µM | > 100 µM | > 100 µM |  |  |  |  |  |  |  |  | 
7 | COc1ccc(C(=O)c2cc3c(N)c(C(=O)Nc4cccc(OC)c4)sc3nc2C)cc1 | > 100 µM | > 46.1 | > 100 µM | > 100 µM | > 100 µM | > 100 µM | > 100 µM | > 100 µM | > 100 µM | 0.446 | 0.643 | 0.741 | 1.19 |  | 0.724 | 1.14 | 2.39 µM | 1.54
8 | Nc1c(C(=O)Nc2cccc3ccccc23)sc2nc3c(cc12)C(=O)CCC3 | > 100 µM | 4.44 | > 100 µM |  | 1.02 µM | > 38.2 µM | > 46.7 µM | > 95.6 µM | > 100 µM | 0.222 | 0.333 | 0.165 | 0.057 | 0.315 | 0.52 | 0.636 | 2.92 µM | 0.604
9 | S=c1c2ccccc2c(=S)n2n1CC=CC2 | > 100 µM | > 100 | > 100 µM |  | > 100 µM |  | > 100 µM | > 100 µM | > 100 µM |  |  |  |  |  |  |  |  | 
10 | c1ccc(-c2nnc3nn4c(-c5ccccc5)cnnc4c3c2-c2ccccc2)cc1 | > 100 µM | > 100 | > 100 µM | > 100 µM |  |  |  | 75.1 µM | > 100 µM |  |  |  |  |  |  |  |  | 
11 | CCCCNC1=C(C(=O)OCC)/C(=N/NC(=O)c2ccccc2O)CO1 | > 100 µM | > 100 | > 100 µM | > 100 µM | 57.8 µM | > 100 µM | > 100 µM | 28.1 µM |  |  |  |  |  |  |  |  |  | 
12 | Cc1ccc2nc(NC(=O)C(=O)CC(=O)c3cccc4ccccc34)sc2c1 | > 100 µM | 55.4 | > 100 µM | > 100 µM |  | 56.9 µM | > 100 µM | > 100 µM | 69.9 µM |  |  |  |  |  |  |  |  | 
13 | O=C(/C=C/C1C(=O)NC(=O)NC1=O)CC(=O)C(=O)Nc1cc(Cl)c(Cl)cc1Cl | > 100 µM | > 100 | > 100 µM | > 100 µM | > 100 µM | > 100 µM | > 100 µM | > 100 µM |  |  |  |  |  |  |  |  |  | 
14 | CCOC(=O)CC(NC(=O)c1ccc(N=NN(C)C)cc1)C(=O)OCC (stereo not drawn) | > 100 µM | > 100 | > 100 µM | > 100 µM | > 100 µM | > 100 µM | > 100 µM | > 100 µM |  |  |  |  |  |  |  |  |  | 
15 | O=C(Nc1nc2ccccc2s1)c1cc(-c2ccc(F)cc2)n2nc(-c3ccccc3)cc2n1 |  |  |  |  |  | 7.02 µM | > 100 µM |  | 5.06 µM |  |  |  |  | 2.24 | 4.36 |  | 1.69 µM | 
16 | CC(C)[Si](OCC1CC(C#N)OC(C)(C)O1)(C(C)C)C(C)C (stereo not drawn) | 36 µM | 33 | > 100 µM | 30.8 µM | 43.5 µM | 44.3 µM | > 100 µM | 40.9 µM | 57.2 µM |  |  |  |  |  |  |  |  | 

Row | SMILES | TGI (SW-620 colon) | TGI (SK-MEL-5 melanoma) [µM] | TGI (OVCAR-5 ovarian) | TGI (NCI-H460 lung) | TGI (NCI-H522 lung) | TGI (HOP-62 NSCLC) | TGI (IGROV1 ovarian) | TGI (UO-31 renal) | TGI (HOP-92 NSCLC) | GI50 (SW-620 colon) [µM] | GI50 (SK-MEL-5 melanoma) [µM] | GI50 (NCI-H460 lung) [µM] | GI50 (NCI-H522 lung) [µM] | GI50 (HOP-62 NSCLC) [µM] | GI50 (IGROV1 ovarian) [µM] | GI50 (UO-31 renal) [µM] | GI50 (HOP-92 NSCLC) | GI50 (OVCAR-5 ovarian) [µM]
17 | CC(C)N1C(C)[C@@H](c2ccccc2)O[P@]1(=O)CC1=CCCCC1 (stereo partly drawn) | > 100 µM | > 100 | > 100 µM | > 100 µM | > 100 µM | > 100 µM | > 100 µM | > 100 µM | 99.6 µM |  |  |  |  |  |  |  |  | 
18 | COc1ccc2c(c1)/C(=N/OC(C)=O)c1c-2cnc2ccccc12 | > 100 µM | 48.5 | 55.6 µM | > 100 µM | 65.5 µM | 46.6 µM | 52 µM | 46.6 µM | 37.2 µM | 67.1 | 17.6 | 30.3 | 22.3 | 20.8 | 25.3 | 22.2 | 18.3 µM | 21.9
19 | O=c1[nH]cc(C(F)(C(F)(F)F)C(F)(F)F)c(=O)[nH]1 | > 100 µM | > 100 | > 100 µM | > 100 µM | > 100 µM | > 100 µM | > 100 µM | > 100 µM | > 100 µM |  |  |  |  |  |  |  |  | 
20 | O=S1(=O)c2ccccc2N=C(c2ccccc2Cl)CC1c1ccc(F)cc1 (stereo not drawn) | 31.5 µM | 31.4 | 30.7 µM | 34.6 µM | 26.9 µM |  | 37.4 µM | 28.6 µM | 34.6 µM |  |  |  |  |  |  |  |  | 
21 | CCCCCCCCCCCCCCCCCC(=O)NCC(COP(=O)(O)O)OCC (stereo not drawn) | > 100 µM | > 100 |  |  | > 100 µM | 54.5 µM | > 100 µM | 83.2 µM | 42.4 µM |  |  |  |  |  |  |  |  | 
22 | COc1ccc2c(c1)c1c3n2CCNN=C3CCC1 | > 100 µM | > 100 | > 100 µM | > 100 µM | > 100 µM | > 100 µM | > 100 µM | > 100 µM | > 100 µM |  |  |  |  |  |  |  |  | 
23 | c1ccc(-c2ccnc3c2ccc2c(-c4ccccc4)ccnc23)cc1 | 15 µM | 11.2 | 11.8 µM | 7.28 µM | 5.92 µM | 7.86 µM | 18.2 µM | 4.91 µM |  |  |  |  |  |  |  |  |  | 
24 | Cc1noc(/N=C2\C=C(Nc3onc(C)c3C)C(=O)c3ccccc32)c1C | > 100 µM | > 100 | > 100 µM | > 100 µM |  | > 100 µM | > 100 µM | > 100 µM | > 100 µM |  |  |  |  |  |  |  |  | 
25 | COC(=O)C(=O)C(C(=O)C(=O)Nc1cc(Cl)c(Cl)cc1Cl)c1nc2ccc([N+](=O)[O-])cc2[nH]c1=O (stereo not drawn) | > 100 µM | > 100 | > 100 µM |  | > 100 µM |  | > 100 µM | > 100 µM |  |  |  |  |  |  |  |  |  | 
26 | COC(=O)C(C(=O)C(N)=O)c1csc(-n2nc(-c3ccccc3)cc2-c2ccccc2)n1 (stereo not drawn) | 6.02 µM | > 31.6 | > 100 µM | > 31.6 µM | > 31.6 µM |  | > 31.6 µM | 28.9 µM | > 100 µM |  |  |  |  |  |  |  |  | 
27 | C#CCOCn1cnc2ncnc(N)c21 | > 100 µM | > 100 | > 100 µM | > 100 µM | > 100 µM | > 100 µM | > 100 µM | > 100 µM | > 100 µM |  |  |  |  |  |  |  |  | 
28 | C/C(CC(=O)Nc1cccc([N+](=O)[O-])c1)=N\NC(=O)CC#N | > 100 µM | > 100 | > 100 µM |  | > 100 µM | > 100 µM | > 100 µM | > 100 µM | > 100 µM |  |  |  |  |  |  |  |  | 
29 | CC(=O)OC(=O)O/C=C\CCl | > 100 µM | > 100 |  | > 100 µM | 33.1 µM | > 100 µM | > 100 µM | > 100 µM |  |  |  |  |  |  |  |  |  | 
30 | CC(=O)[C-](C(C)=O)c1ccccc1.CC(=O)[C-](C(C)=O)c1ccccc1.CC(=O)[C-](C(C)=O)c1ccccc1.[Cl-].[Zr+4] | > 100 µM | > 100 | > 100 µM | > 100 µM | > 100 µM | > 100 µM | > 100 µM | > 100 µM | > 100 µM | > 100 | > 100 | > 100 | > 100 | > 100 | > 100 | > 100 | 44.5 µM | > 100
31 | Cc1c2ccncc2c(C)c2c1[nH]c1ccc(Cl)cc12 | 9.35 µM and 2.6 µM | 13.8 | 16.6 µM and 16.3 µM | 4.46 µM and 12.2 µM | 9.18 µM and 17.1 µM | 13.9 µM and 9.86 µM | 13.7 µM and 21.1 µM | 8.15 µM and 16.3 µM | 17.5 µM and 9.11 µM | 1.04 |  | 3.08 |  | 2.66 | 3.88 | 4.44 | 6.56 µM and 1.93 µM | 4.32
32 | CC(=O)NC(CCCN(Cc1ccccc1)C(=O)N(C)N=O)C(=O)NCc1ccccc1 (stereo not drawn) | > 100 µM | > 100 | > 100 µM | > 100 µM | > 100 µM | > 100 µM | > 100 µM | > 100 µM | > 100 µM |  |  |  |  |  |  |  |  | 
